Consider six compounds from ChEMBL document CHEMBL5608226, “Innovative Ketamine Formulations: Enhancing Therapeutic Efficacy and Safety” (ACS Med Chem Lett, 2024).

A short description of data set [1]: Ratio of Cmax for test compound to Cmax for Ketamine HCL in Sprague-Dawley rat at 4.64 mg/kg,po administration measured upto 4 hrs. It counts as ADME, organism-based. As to conditions: in vivo.
Data set [2] is described as follows: Ratio of AUC (0 to 4 hr) for test compound to AUC (0 to 4 hr) for Ketamine HCL in Sprague-Dawley rat at 4.64 mg/kg,po administration measured upto 4 hrs. As to conditions: in vivo. In kind it is ADME, organism-based.

The structures appear in SMILES notation.

In the case of `CC[C@H](C)[C@H](NC(=O)c1ccc[n+](COC(=O)N(C)C2(c3ccccc3Cl)CCCCC2=O)c1)C(=O)O.[Cl-]` (some centres not stated), the Ratio turned out to be 246% in data set [1] and 223% in data set [2].
The like results for `CN(CC(=O)O)C(=O)c1ccc[n+](COC(=O)N(C)C2(c3ccccc3Cl)CCCCC2=O)c1.[Cl-]` (configuration not stated) were, in that order, 112% and 93.9%.
The like results for `CN(C(=O)OC[n+]1cccc(C(=O)N[C@@H](CCCCN)C(=O)O)c1)C1(c2ccccc2Cl)CCCCC1=O.Cl.[Cl-]` (some centres not stated) were, in that order, 71.2% and 75.4%.
The like results for `C[C@H](NC(=O)c1ccc[n+](COC(=O)N(C)C2(c3ccccc3Cl)CCCCC2=O)c1)C(=O)O.[Cl-]` (some centres not stated) were, in that order, 73.7% and 63.2%.
Regarding `CC(C)[C@H](NC(=O)c1ccc[n+](COC(=O)N(C)C2(c3ccccc3Cl)CCCCC2=O)c1)C(=O)O.[Cl-]` (some centres not stated), the Ratio is given as 223% in data set [1] and 160% in data set [2].
The like results for `CN(C(=O)OC[n+]1cccc(C(=O)N2CCC[C@H]2C(=O)O)c1)C1(c2ccccc2Cl)CCCCC1=O.[Cl-]` (some centres not stated) were, in that order, 178% and 166%.
